In patent publication US9132176B2, “RAB6KIFL/KIF20A epitope peptide and vaccines containing the same” (ONCOTHERAPY SCIENCE, INC., priority 2008, dated 2015):
Where a SMILES comes first, the peptide text is derived from it.

Columns and labels:
SKHep1/Mock = test: 51Cr release assay of peptide-induced CTLs against SKHep1/Mock; format: cell-based, human; details: mock-transfected SKHep1
Protocol: (§1) A lentiviral vector-mediated gene transfer was performed as described previously (Imai K, et al. Clin Cancer Res 2008; 14:6487-95, Tahara-Hanaoka S, et al. Exp Hematol 2002; 30:11-7). Briefly, 17 micro-g of CSII-CMV-RfA and CSIIEF-RfA self-inactivating vectors (Miyoshi H, et al. J Virol 1998; 72: 8150-7) carrying RAB6KIFL cDNAs and 10 micro-g of pCMV-VSV-G-RSV-Rev and pCAG-HIVgp were transfected into the 293T cells grown in a 10-cm culture dish using Lipofectamine 2000 reagent (Invitrogen Corporation, Carlsbad, Calif., USA). After 60 hr of transfection, the medium was recovered and the viral particles were pelleted by ultra-centrifugation (50,000×g, 2 hr). The pellet was suspended in 50 micro-L of RPMI 1640 medium and 10 micro-L of viral suspension was added to 5×10^4 SKHep1 cells, per well in a flat-bottom 96-well plate. The expression of the transfected RAB6KIFL gene was confirmed by a Western blot analysis.
(§2) Human RAB6KIFL-derived peptides (purity>95%), carrying binding motifs for HLA-A2 (A*0201)-encoded molecules, were selected using the BIMAS software program (BioInformatics and Molecular Analysis Section, Center for Information Technology, NIH, Bethesda, Md.) and 36 peptides were synthesized (American Peptide Company, CA, USA) (Tables 1A and B). Monocyte-derived DCs were used as antigen-presenting cells to induce CTL responses against peptides presented in the context of HLA. DCs were generated in vitro culture as described previously (Yoshitake Y, et al. Clin Cancer Res 2004; 10:6437-48, Harao M, et al. Int J Cancer 2008; in press, Imai K, et al. Clin Cancer Res 2008; in press). Briefly, PBMCs isolated from a normal volunteer positive for HLA-A2 using Ficoll-Plaque (GE Healthcare UK, Ltd., Buckinghamshire, UK) solution were sorted to CD8^+ population and CD14^+ population with microbeads (Miltenyi Biotec, Bergisch Gladbach, Germany). […]

HLA-A2 (HHD) Tgm = test: Autoimmune phenomenon after peptide vaccination: immunohistochemistry with anti-CD4/anti-CD8 mAb and observation; format: in vivo, mouse
Protocol: Western blotting and immunohistochemical staining of RAB6KIFL protein were performed as described previously (Nakatsura T, et al. Biochem Biophys Res Commun 2001; 281:936-44. Yoshitake Y, et al. Clin Cancer Res 2004; 10:6437-48). For Western blotting analyses of human normal tissues, a pre-made human adult normal tissue blot (Biochain, Hayward, Calif.) was used. The primary antibodies used herein, anti-RAB6KIFL polyclonal antibody, and monoclonal anti-b-actin antibody, were purchased from Bethyl Laboratories, Inc. (Montgomery, Tex., USA) and Sigma (Steinheim, Germany), respectively. Immunohistochemical staining of CD4 or CD8 in tissue specimens of HLA-A2.1 (HHD) Tgm immunized with the RAB6KIFL-A2-10-284 peptide was done as described previously (Matsuyoshi H, et al. 2004; 172:776-86).
It is very important to investigate whether the immunization with RAB6KIFL peptide induce an autoimmune reaction or not. We thus performed the immunohistochemical analysis of several vital organs with anti-CD4 and anti-CD8 mAb in HLA-A2 (HHD) Tgm after two-times vaccination with RAB6KIFL-A2-9-809 peptide, of which amino-acid sequences were completely conserved between human and mouse RAB6KIFL. […] The abnormalities frequently observed in mice affected with autoimmune diseases such as abnormal hair and skin, diarrhea and weight loss were also not observed in these mice.

CaCo-2 = test: 51Cr release assay of peptide-induced CTLs against CaCo-2; format: cell-based, human; details: CaCo-2 (RAB6KIFL+, HLA-A2+); healthy donors
Description: as §2, with “Germany). To generate DCs, the CD14^+ population was cultured in the presence of 100 ng/mL granulocyte-macrophage colony-stimulating factor (GM-CSF; PeproTec Inc., NJ, USA) and 10 ng/mL interleukin (IL)-4 (PeproTec) in AIM-V (Invitrogen) containing 2% heat-inactivated autologous plasma. After 5 days of culture, OK-432 was added into the dish to make the DCs mature.” for “Germany).”
(§3) The CTLs were cocultured with each of the cancer cells, or the peptide-pulsed T2 cells, as a target cell (5×10^3/well) at the indicated effector/target ratio and a standard ^51Cr release assay was done as described previously (Yoshitake Y, et al. Clin Cancer Res 2004; 10:6437-48. Imai K, et al. Clin Cancer Res 2008; in press). […] After 6 h incubation, 50 micro L of the supernatant was collected from each well and the radioactivity was quantified using a gamma counter. The specific cytotoxicity was evaluated by calculating the percentage of specific ^51Cr release. […]

[1] = tested on: cancer cells expressing both RAB6KIFL and HLA-A2; test: Comparison of the cytotoxicity of CTLs induced by the three peptides; format: cell-based, human; details: vs RAB6KIFL-A2-9-12 and RAB6KIFL-A2-10-284
Protocol: The CTLs were cocultured with each of the cancer cells, or the peptide-pulsed T2 cells, as a target cell (5×10^3/well) at the indicated effector/target ratio and a standard ^51Cr release assay was done as described previously (Yoshitake Y, et al. Clin Cancer Res 2004; 10:6437-48. Imai K, et al. Clin Cancer Res 2008; in press). Briefly, target cells were labeled with 3.7 KBq […] (Perkin Elmer Life Sciences) for 1 h at 37 degree C. in a CO2 incubator. Labeled target cells were rinsed three times, and peptide-pulsed target cells were prepared by incubating the cells with 20 micro g/mL peptide for 3 h at 37 degrees C. Target cells were mixed with effector cells in final volume of 200 micro L in flat-bottomed microtiter plates and incubated. After 6 h incubation, 50 micro L of the supernatant was collected from each well and the radioactivity was quantified using a gamma counter. The specific cytotoxicity was evaluated by calculating the percentage of specific ^51Cr release.
The potential of RAB6KIFL as an immunotherapeutic target was verified herein by identifying the HLA-A2-restricted epitope peptides and evaluating their immunogenicity. […]

SKHep1/RAB6KIFL = test: 51Cr release assay of peptide-induced CTLs against SKHep1/RAB6KIFL; format: cell-based, human; details: SKHep1 transfected with RAB6KIFL gene (RAB6KIFL high, HLA-A2+)
Protocol: as §1, §2

T2 cells = test: Induction of human CTLs from PBMCs, 51Cr release assay against peptide-pulsed T2 cells; format: cell-based; details: CTLs from PBMCs of two HLA-A2-positive healthy donors, three stimulations with peptide-pulsed DCs
Description: as §2, with “Germany). To generate DCs, the CD14^+ population was cultured in the presence of 100 ng/mL granulocyte-macrophage colony-stimulating factor (GM-CSF; PeproTec Inc., NJ, USA) and 10 ng/mL interleukin (IL)-4 (PeproTec) in AIM-V (Invitrogen) containing 2% heat-inactivated autologous plasma. After 5 days of culture, OK-432 was added into the dish to make the DCs mature.” for “Germany).”
as §3

PANC1 = test: 51Cr release assay of peptide-induced CTLs against PANC1; format: cell-based, human; details: PANC1 (RAB6KIFL+, HLA-A2+); healthy donors
Description: as §2, with “Germany). To generate DCs, the CD14^+ population was cultured in the presence of 100 ng/mL granulocyte-macrophage colony-stimulating factor (GM-CSF; PeproTec Inc., NJ, USA) and 10 ng/mL interleukin (IL)-4 (PeproTec) in AIM-V (Invitrogen) containing 2% heat-inactivated autologous plasma. After 5 days of culture, OK-432 was added into the dish to make the DCs mature.” for “Germany).”
as §3

Compound	cytotoxicity of peptide-induced CTLs against SKHep1/Mock (SKHep1/Mock)	pathologic change (lymphocyte infiltration or tissue destruction suggesting autoimmunity) in vital organs (HLA-A2 (HHD) Tgm; after two-times vaccination, anti-CD4 and anti-CD8 staining)	abnormalities of autoimmune disease (abnormal hair and skin, diarrhea, weight loss) (HLA-A2 (HHD) Tgm; mouse, in vivo)	cytotoxicity of peptide-stimulated CTLs to CaCo-2 (CaCo-2)	cytotoxicity of peptide-induced CTLs compared with CTLs induced by the other two peptides [1]	cytotoxicity of peptide-induced CTLs against SKHep1/RAB6KIFL (SKHep1/RAB6KIFL)	cytotoxic activity of induced CTLs to T2 cells pulsed with the peptide (T2 cells)	cytotoxicity of peptide-stimulated CTLs to PANC1 (PANC1)
CC[C@H](C)[C@H](NC(=O)[C@@H](N)CS)C(=O)N[C@@H](C)C(=O)N[C@@H](CCC(=O)O)C(=O)N[C@@H](CCC(N)=O)C(=O)N[C@@H](Cc1ccc(O)cc1)C(=O)N[C@@H](Cc1c[nH]cn1)C(=O)N[C@H](C(=O)N[C@H](C(=O)O)C(C)C)[C@@H](C)O [RAB6KIFL-A2-9-809, CIAEQYHTV] (H-CIAEQYHTV-OH; N-terminus and C-terminus assumed)	but not against SKHep1/Mock	no pathologic change	not observed	exhibited cytotoxicity	stronger cytotoxicity	exhibited cytotoxicity	exhibited cytotoxic activity	exhibited cytotoxicity
CC(C)C[C@H](NC(=O)[C@@H](N)CC(C)C)C(=O)N[C@@H](CO)C(=O)N[C@@H](CC(=O)O)C(=O)N[C@@H](CC(=O)O)C(=O)N[C@@H](CC(=O)O)C(=O)N[C@H](C(=O)N[C@H](C(=O)N[C@H](C(=O)O)C(C)C)C(C)C)C(C)C [RAB6KIFL-A2-9-12, LLSDDDVVV] (H-LLSDDDVVV-OH; N-terminus and C-terminus assumed)	but not against SKHep1/Mock	–	–	exhibited cytotoxicity	–	exhibited cytotoxicity	exhibited cytotoxic activity	exhibited cytotoxicity
CC(C)C[C@H](NC(=O)[C@@H]1CCCN1C(=O)[C@H](C)NC(=O)[C@@H](NC(=O)[C@H](CC(=O)O)NC(=O)[C@@H]1CCCN1C(=O)[C@H](CCC(N)=O)NC(=O)[C@H](C)N)[C@@H](C)O)C(=O)N1CCC[C@H]1C(=O)N[C@H](C(=O)O)C(C)C [RAB6KIFL-A2-10-284, AQPDTAPLPV] (H-AQPDTAPLPV-OH; N-terminus and C-terminus assumed)	but not against SKHep1/Mock	–	–	exhibited cytotoxicity	–	exhibited cytotoxicity	exhibited cytotoxic activity	exhibited cytotoxicity
